According to US12247224B2, “Organoids for drug screening and personalized medicine” (SENTING, LLC, priority 2014, dated 2025):

Experiments:
Format in all cases: cell-based, human
progenitor-organoids = test: Toxicity of epigenetic inhibitors to normal cells in progenitor-organoids; conditions: compared with JQ1, LAQ824, SGC0946, data not shown
Protocol: (§1) For pancreas progenitor organoid culture, T9 cells were resuspended and plated in the PTOM (Pancreatic Progenitor and Tumor Organoid Media) containing DMEM with factors including serum-free supplements, FGFs, and insulin. The cells were plated on a bed of Matrigel as described before 3. At day 8 in 3D culture, replace culture medium with fresh POMM (Pancreatic Organoid Maintenance Media) (PTOM media without FGFs) with 5% Matrigel every 4 days. PODM I (Pancreatic Organoid Differentiation Media) contains DMEM with B27, 2-phospho ascorbic acid, FGF, EGF, TGF beta inhibitors. PODM II contains DMEM with B27, 2-phospho ascorbic acid, FGF, EGF. Fresh tissues of primary tumors from patients were washed twice with DMEM, digested with collagenase (Roche) and resuspended in PTOM. Tumor cells were then seeded in 3D culture chambers as described above. Culture media were replaced every 4 days. For serial passaging of organoids, day 16 organoids were treated with collagenase for 2 hours then further dissociated with trypsin for 10-30 minutes. Cells were collected and re-seeded in 3D culture following protocols as described above. MCF-10A cells were obtained from ATCC. Gene expression data will be uploaded into NCBI's Gene Expression Omnibus (GEO). […]

[1] = test system: H3K27me3 mark in UHN17 organoids; test: Immunostaining for H3K27me3 in control (DMSO) or UNC1999-treated tumor-organoids; conditions: at concentrations with significant growth-inhibitory effects
Source text: (§2) For MTT and oxygen consumptions experiments, data represent mean+/− S.D. P value (t-test, two tailed): N.S-, not significant; *−p=0.01-0.05; **−p=0.001-0.01; ***, p=<0.001 (n=3). (B) Immunostaining for H3K27me3 in control (DMSO) or UNC 1999-treated tumor-organoids. Scale bars, 50 μm. (C) Tumor-organoids (top panel) and primary tumors (bottom panel) derived from tumor UHN3, UHN 5 and UHN15, show consistent patient-specific variation in staining for H3K27me3. Scale bars, 50 μm.
Inhibitors of BET (JQ1), histone deacetylase (LAQ824), DOT1L (SGC0946), G9a (A366) and EZH2 (UNC1999) were tested in progenitor-organoids to investigate their toxicities to normal cells. […] A366 and UNC1999 were administered to organoid cultures in combination with the current standard of care, gemcitabine (See FIG. 6 legend and FIG. 12). Organoids were not sensitive to G9a inhibition (FIG. 12A).

[2] = test system: tumor-organoids UHN17, UHN3; test: Basal O2 consumption measured by Seahorse flux analyzer with and without UNC1999
Source text: (§3) (A) Time lapse imaging sequence of UHN6 derived organoids. (B) H&E, phase and immunofluorescence images for KRT19 (bright) and DAPI (dark) of images of tumor-organoids and their matched primary tumors. ((C) H&E images showing maintenance of inter-organoid heterogeneity in histoarchitecture representing variation in primary patient tumor. (D) Normalized MTT assay readings of organoid cultures treated with gemcitabine for 4 days. E) Normalized MTT assay readings of organoid cultures with gemcitabine and epigenetic inhibitor of the H3K27me3 writer EZH2 (UNC1999). (F) Normalized MTT reading of tumor-organoids treated with UNC199 alone. See online Methods for details. (G) Immunostaining for H3K27me3 (bright) in two primary patient tumors (top panel) and corresponding tumor-organoids (bottom panel). (H) Basal 02 consumption as measured by Seahorse™ flux analyzer with and without UNC1999 treatment. For MTT and oxygen consumptions experiments, data represent mean+/−S.D. P value (t-test, two tailed): N.S-, not significant; *−p=0.01-0.05; **−p=0.001-0.01; ***, p=<0.001 (n=3). All scale bars equal to 50 μm.
Recent studies reveal a relationship between oxygenation and regulation of H3K27me3 epigenetic mark^28,29. […] We measured basal respiration rates to investigate if tumor-organoids show differences in oxygen consumption. […]

[3] = test system: tumor-organoids UHN6, UHN17, UHN3, UHN5 and UHN15 (primary PDAC); test: MTT assay of tumor-organoid cultures treated with drugs
Source text: as §3, §2
as §1, with “above.” for “above. MCF-10A cells were obtained from ATCC. Gene expression data will be uploaded into NCBI's Gene Expression Omnibus (GEO).”
We analyzed five organoid cultures, UHN6, UHN17, UHN3, UHN5 and UHN15. […]

SMILES	toxicity to normal cells (progenitor-organoids)	H3K27me3 mark after treatment [1]	basal oxygen consumption after EZH2 inhibition [2]	suppression of proliferation by EZH2 inhibition alone (MTT) ([3]; UNC1999 alone, UHN17, UHN3, UHN5)	proliferation upon EZH2 inhibition compared to gemcitabine treatment alone (MTT) ([3]; in combination with gemcitabine, UHN17, UHN3, UHN5, UHN15)	growth inhibition in MTT assays ([3]; gemcitabine for 4 days, all five organoid cultures UHN6, UHN17, UHN3, UHN5, UHN15) [%]	sensitivity of organoids to G9a inhibition (MTT) ([3]; in combination with gemcitabine, tumor-organoids)
CCCc1cc(C)[nH]c(=O)c1CNC(=O)c1cc(-c2ccc(N3CCN(C(C)C)CC3)nc2)cc2c1cnn2C(C)C [UNC1999]	least toxic	suppressed the H3K27me3 mark	suppressed	effective in suppressing proliferation	dose-dependent decreases in proliferation		
Nc1ccn([C@@H]2O[C@H](CO)[C@@H](O)C2(F)F)c(=O)n1 [gemcitabine]						30	
COc1cc2c(cc1OCCCN1CCCC1)N=C(N)C21CCC1 [A366]	least toxic						not sensitive
